What all share (format): biochemical
Details in all cases: FAM-cAMP substrate, 30 minutes at room temperature

For experiment [1], the target named is T1, PDE4A1A (Homo sapiens, UniProt P27815).
T1 construct: purchased BPS 60040
The experiment can be described thus: PDE4 activity inhibition assay, PDE4A1A. The procedure:
(§1) The IC50 value of the inhibitory effect of the compound on PDE4A1A, PDE4B1 and PDE4D3 was tested.
(§2) Positive compound: Trequinsin (Sigma, Cat. No. T2057).
(§3) Equipment: Wallac Victor Multi-label counter (Perkin Elmer).
(§4) I. Preparing 1× reaction liquid and termination liquid;
(§5) II. PDE enzymatic reaction; • 1) The PDE was dissolved in 1× reaction solution to form 2× enzyme solution. • 2) FAM-cAMP was dissolved in 1× reaction solution to form 2× substrate solution. • 3) Echo 550 was used to transfer the corresponding volume of the compound in DMSO solution to the reaction plate. • 4) 2× enzyme solution was added into the corresponding well of the reaction plate and incubated with the compound solution at room temperature for 15 minutes. • 5) 2× substrate solution was added into the corresponding well of the reaction plate to initiate the reaction. • 6) Reaction plate was incubated at room temperature for 30 minutes and terminated by adding termination liquid, then incubated at room temperature for 60 minutes.
(§6) The inhibition rate was calculated by Excel; IC50 was calculated by GraphPad Prism.

Experiment [2] has as its target T2, PDE4B1 (Homo sapiens, UniProt Q07343).
T2 construct: purchased BPS 60041
As to the kind of experiment: PDE4 activity inhibition assay, PDE4B1. The procedure: as §1, §2, §3, §4, §5, §6

Experiment [3] concerns the target T3, PDE4D3 (Homo sapiens, UniProt Q08499).
T3 construct: purchased BPS 60046
As to the kind of experiment: PDE4 activity inhibition assay, PDE4D3. The procedure: as §1, §2, §3, §4, §5, §6

One may read the IC50 as the point on the concentration scale where inhibition reaches its midpoint. A low value points to greater potency in that assay.

T2 sequence (Q07343 whole entry): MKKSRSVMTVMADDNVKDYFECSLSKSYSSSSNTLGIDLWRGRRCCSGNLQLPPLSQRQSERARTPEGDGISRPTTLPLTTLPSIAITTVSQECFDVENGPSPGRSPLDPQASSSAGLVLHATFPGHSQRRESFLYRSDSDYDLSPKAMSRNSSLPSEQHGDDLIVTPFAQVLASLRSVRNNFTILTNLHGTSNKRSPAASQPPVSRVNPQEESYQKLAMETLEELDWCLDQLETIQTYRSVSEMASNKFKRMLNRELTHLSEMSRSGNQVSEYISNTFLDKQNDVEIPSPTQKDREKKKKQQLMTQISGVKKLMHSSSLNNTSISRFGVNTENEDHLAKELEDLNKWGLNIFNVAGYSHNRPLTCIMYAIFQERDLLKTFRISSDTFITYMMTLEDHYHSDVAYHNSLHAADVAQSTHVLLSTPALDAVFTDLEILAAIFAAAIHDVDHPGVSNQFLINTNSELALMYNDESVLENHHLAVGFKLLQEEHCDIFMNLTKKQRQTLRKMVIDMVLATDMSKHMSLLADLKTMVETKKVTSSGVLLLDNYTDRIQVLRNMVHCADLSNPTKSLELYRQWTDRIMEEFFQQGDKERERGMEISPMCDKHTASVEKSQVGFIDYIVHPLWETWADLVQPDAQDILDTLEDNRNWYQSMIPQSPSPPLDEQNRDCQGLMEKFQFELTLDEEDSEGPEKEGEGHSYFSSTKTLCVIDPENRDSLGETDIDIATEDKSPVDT
T3 sequence (Q08499 1-673 isoform Q08499-2): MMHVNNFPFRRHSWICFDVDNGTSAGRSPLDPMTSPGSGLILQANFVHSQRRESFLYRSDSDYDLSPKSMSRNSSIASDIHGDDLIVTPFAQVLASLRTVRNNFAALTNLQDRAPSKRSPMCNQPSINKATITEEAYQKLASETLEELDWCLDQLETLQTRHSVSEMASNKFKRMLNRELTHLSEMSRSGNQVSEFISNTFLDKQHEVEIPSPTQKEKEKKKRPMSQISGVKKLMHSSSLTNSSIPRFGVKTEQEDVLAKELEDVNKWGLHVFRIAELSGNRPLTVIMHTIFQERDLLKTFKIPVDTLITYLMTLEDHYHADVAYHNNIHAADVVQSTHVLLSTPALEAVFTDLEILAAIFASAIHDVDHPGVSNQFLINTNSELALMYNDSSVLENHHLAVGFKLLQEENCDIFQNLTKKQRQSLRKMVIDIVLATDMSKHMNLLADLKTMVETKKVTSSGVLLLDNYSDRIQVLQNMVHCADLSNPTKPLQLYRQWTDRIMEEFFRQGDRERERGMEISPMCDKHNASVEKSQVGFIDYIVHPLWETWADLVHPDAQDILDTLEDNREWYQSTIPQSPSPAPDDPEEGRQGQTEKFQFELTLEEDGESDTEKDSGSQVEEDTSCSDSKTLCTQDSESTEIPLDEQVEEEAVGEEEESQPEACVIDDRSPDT
T1 sequence (P27815 1-647 isoform P27815-4): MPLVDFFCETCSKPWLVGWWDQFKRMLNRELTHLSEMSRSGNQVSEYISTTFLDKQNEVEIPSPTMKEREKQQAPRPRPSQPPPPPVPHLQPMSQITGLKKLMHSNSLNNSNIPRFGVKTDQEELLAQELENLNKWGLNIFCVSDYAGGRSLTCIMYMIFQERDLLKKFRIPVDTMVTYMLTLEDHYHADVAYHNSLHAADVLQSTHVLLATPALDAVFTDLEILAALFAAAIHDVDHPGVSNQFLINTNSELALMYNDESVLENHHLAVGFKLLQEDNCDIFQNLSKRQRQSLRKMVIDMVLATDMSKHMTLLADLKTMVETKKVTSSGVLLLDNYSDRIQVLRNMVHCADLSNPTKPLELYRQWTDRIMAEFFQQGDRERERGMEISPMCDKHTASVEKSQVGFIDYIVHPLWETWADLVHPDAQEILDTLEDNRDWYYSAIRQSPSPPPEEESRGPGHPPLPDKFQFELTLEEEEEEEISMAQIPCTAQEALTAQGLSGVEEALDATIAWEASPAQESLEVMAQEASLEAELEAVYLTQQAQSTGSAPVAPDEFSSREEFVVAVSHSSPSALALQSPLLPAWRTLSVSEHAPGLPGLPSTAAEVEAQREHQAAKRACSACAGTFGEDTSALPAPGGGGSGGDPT

In the case of `CCOc1cc(C(CS(C)(=O)=O)N2C(=O)c3nccc(NC(C)=O)c3C2=O)ccc1OC` (stereo not drawn) [Compound 601, N-(6-(1-(3-ethoxy-4-methoxyphenyl)-2-(methylsulfonyl)ethyl)-5,7-dioxo-6,7-dihydro-5H-pyrrolo[3,4-b]pyridin-4-yl)acetamide], the IC50 amounted to 273 nM in experiment [1], 390 nM in experiment [2] and 201 nM in experiment [3].

As for `CCOc1nc(C(CS(C)(=O)=O)N2C(=O)c3cccc(NC(C)=O)c3C2=O)ccc1OC` (stereo not drawn) [Compound 701, N-(2-(1-(6-ethoxy-5-methoxypyridin-2-yl)-2-(methylsulfonyl)ethyl)-1,3-dioxoisoindolin-4-yl)acetamide], the IC50 stood at 2.5 nM in experiment [1], 3.5 nM in experiment [2] and 2.1 nM in experiment [3].

As to `CCOc1nc([C@H](CS(C)(=O)=O)N2C(=O)c3cccc(NC(C)=O)c3C2=O)ccc1OC` [Compound 703, (R)—N-(2-(1-(6-ethoxy-5-methoxypyridin-2-yl)-2-(methylsulfonyl)ethyl)-1,3-dioxoisoindolin-4-yl)acetamide], the IC50 in experiment [1] stood at 30 nM; in experiment [2], 55 nM; in experiment [3], 20 nM.

Consider `CCOc1nc([C@H](CS(C)(=O)=O)N2C(=O)c3c(F)ccc(NC(C)=O)c3C2=O)ccc1OC` [Compound 706, (R)—N-(2-(1-(6-ethoxy-5-methoxypyridin-2-yl)-2-(methylsulfonyl)ethyl)-7-fluoro-1,3-dioxoisoindolin-4-yl)acetamide], for which the figures for the half-maximal inhibitory concentration (IC50) in experiment [1], in experiment [2] and in experiment [3] were 6.5 nM, 18 nM and 4 nM, respectively.

For `CCOc1nc([C@H](CS(C)(=O)=O)N2C(=O)c3cc(F)cc(NC(C)=O)c3C2=O)ccc1OC` [Compound 709, (R)—N-(2-(1-(6-ethoxy-5-methoxypyridin-2-yl)-2-(methylsulfonyl)ethyl)-6-fluoro-1,3-dioxoisoindolin-4-yl)acetamide], the IC50 was determined as 17 nM in experiment [1], 32 nM in experiment [2] and 11 nM in experiment [3].

With `[2H]C([2H])([2H])Oc1ccc([C@@H](CS(C)(=O)=O)N2C(=O)c3cccc(NC(C)=O)c3C2=O)nc1OCC` [Compound 711, (S)—N-(2-(1-(6-ethoxy-5-d3-methoxypyridin-2-yl)-2-(methylsulfonyl)ethyl)-1,3-dioxoisoindolin-4-yl)acetamide], the concentration for half-maximal inhibition (IC50) in experiment [1] came out at 1.1 nM; in experiment [2] it was 5.1 nM; in experiment [3], 2 nM.

For `[2H]C([2H])([2H])Oc1ccc([C@H](CS(C)(=O)=O)N2C(=O)c3cccc(NC(C)=O)c3C2=O)nc1OCC` [Compound 712, (R)—N-(2-(1-(6-ethoxy-5-d3-methoxypyridin-2-yl)-2-(methylsulfonyl)ethyl)-1,3-dioxoisoindolin-4-yl)acetamide], the IC50 in experiment [1] was 32.6 nM; in experiment [2], 82.8 nM; in experiment [3], 29 nM.

For `[2H]C([2H])([2H])Oc1ccc([C@@H](CS(C)(=O)=O)N2C(=O)c3c(F)ccc(NC(C)=O)c3C2=O)nc1OCC` [Compound 718, (S)—N-(2-(1-(6-ethoxy-5-d3-methoxypyridin-2-yl)-2-(methylsulfonyl)ethyl)-7-fluoro-1,3-dioxoisoindolin-4-yl)acetamide], the IC50 in experiment [1] is 0.9 nM; in experiment [2], 3 nM; in experiment [3] it was 0.7 nM.

Regarding `[2H]C([2H])([2H])Oc1ccc([C@H](CS(C)(=O)=O)N2C(=O)c3c(F)ccc(NC(C)=O)c3C2=O)nc1OCC` [Compound 719, (R)—N-(2-(1-(6-ethoxy-5-d3-methoxypyridin-2-yl)-2-(methylsulfonyl)ethyl)-7-fluoro-1,3-dioxoisoindolin-4-yl)acetamide], the IC50 in experiment [1] worked out at 15.3 nM; in experiment [2], 57.8 nM; in experiment [3] it was 15.4 nM.

As for `[2H]C([2H])([2H])Oc1ccc([C@@H](CS(C)(=O)=O)N2C(=O)c3cc(F)cc(NC(C)=O)c3C2=O)nc1OCC` [Compound 724, (S)—N-(2-(1-(6-ethoxy-5-d3-methoxypyridin-2-yl)-2-(methylsulfonyl)ethyl)-6-fluoro-1,3-dioxoisoindolin-4-yl)acetamide], the values for the IC50 in experiment [1], in experiment [2] and in experiment [3] were 2.3 nM, 5.7 nM and 3.1 nM, respectively.

On to `[2H]C([2H])([2H])Oc1ccc([C@H](CS(C)(=O)=O)N2C(=O)c3cc(F)cc(NC(C)=O)c3C2=O)nc1OCC` [Compound 725, (R)—N-(2-(1-(6-ethoxy-5-d3-methoxypyridin-2-yl)-2-(methylsulfonyl)ethyl)-6-fluoro-1,3-dioxoisoindolin-4-yl)acetamide], for which the values for the IC50 in experiment [1], in experiment [2] and in experiment [3] were 32.1 nM, 93 nM and 33.5 nM, respectively.

In the case of `CCOc1nc(C(CS(C)(=O)=O)N2C(=O)c3c(Cl)ccc(NC(C)=O)c3C2=O)ccc1OC` (stereo not drawn) [Compound 728, N-(7-chloro-2-(1-(6-ethoxy-5-methoxypyridin-2-yl)-2-(methylsulfonyl)ethyl)-1,3-dioxoisoindolin-4-yl)acetamide], the IC50 in experiment [1] worked out at 0.6 nM; in experiment [2], 1.6 nM; in experiment [3], 0.4 nM.

`CCOc1nc([C@@H](CS(C)(=O)=O)N2C(=O)c3c(C#N)ccc(NC(C)=O)c3C2=O)ccc1OC` [Compound 732, (S)—N-(7-cyano-2-(1-(6-ethoxy-5-methoxypyridin-2-yl)-2-(methylsulfonyl)ethyl)-1,3-dioxoisoindolin-4-yl)acetamide]: the values for the concentration for half-maximal inhibition (IC50) in experiment [1], in experiment [2] and in experiment [3] were 0.8 nM, 2.4 nM and 1.1 nM, respectively.

As for `CCOc1nc([C@@H](CS(C)(=O)=O)N2C(=O)c3cc(C#N)cc(NC(C)=O)c3C2=O)ccc1OC` [Compound 734, (S)—N-(6-cyano-2-(1-(6-ethoxy-5-methoxypyridin-2-yl)-2-(methylsulfonyl)ethyl)-1,3-dioxoisoindolin-4-yl)acetamide], the IC50 in experiment [1] was determined as 5.6 nM; in experiment [2], 17.8 nM; in experiment [3], 13 nM.

As for `CCOc1nc(C(CS(C)(=O)=O)N2C(=O)c3cccc(NS(C)(=O)=O)c3C2=O)ccc1OC` (stereo not drawn) [Compound 737, N-(2-(1-(6-ethoxy-5-methoxypyridin-2-yl)-2-(methylsulfonyl)ethyl)-1,3-dioxoisoindolin-4-yl)methanesulfonamide], the values for the IC50 in experiment [1], in experiment [2] and in experiment [3] were 51.8 nM, 136 nM and 35.9 nM, respectively.

For the molecule `CCOc1nc(C(CS(C)(=O)=O)N2C(=O)c3cccc(NC(=O)CO)c3C2=O)ccc1OC` (stereo not drawn) [Compound 739, N-(2-(1-(6-ethoxy-5-methoxypyridin-2-yl)-2-(methylsulfonyl)ethyl)-1,3-dioxoisoindolin-4-yl)-2-hydroxyacetamide], the IC50 in experiment [1] is 14.5 nM; in experiment [2] it was 36.3 nM; in experiment [3], 10.9 nM.

Regarding `CCOc1nc(C(CS(C)(=O)=O)N2C(=O)c3cccc(NC(=O)COCc4ccccc4)c3C2=O)ccc1OC` (stereo not drawn) [Compound 742, 2-(benzyloxy)-N-(2-(1-(6-ethoxy-5-methoxypyridin-2-yl)-2-(methylsulfonyl)ethyl)-1,3-dioxoisoindolin-4-yl)acetamide], the IC50 in experiment [1] amounted to 2.4 nM; in experiment [2], 6.2 nM; in experiment [3] it was 2.6 nM.

The values are drawn from patent US11337964B2, “Isoindoline derivative, pharmaceutical composition and use thereof” (Kangpu Biopharmaceuticals, Ltd., priority 2017, dated 2022).
